Data: patent publication US6232318A, “Pyrimidinedione derivatives useful as alpha 1A adrenoceptor antagonists” (Merck & Co., Ltd., priority 1999, dated 2001)

Key:
[1] = tested on: human alpha 1d and alpha 1b adrenergic receptors; assay: Selective binding assays: alpha 1d and alpha 1b membranes ([125I]-HEAT competition), compared with alpha 1a; conditions: alpha 1a vs alpha 1b and alpha 1d, ratio
Description: Membranes prepared from stably transfected human alpha 1d and alpha 1b cell lines (ATCC CRL 11138 and CRL 11139, respectively) were used to identify compounds that selectively bind to the human alpha 1a adrenergic receptor. These competition binding reactions (total volume=200 μl) contained 50 mM Tris-HCl pH. 7.4, 5 mM EDTA, 150 mM NaCl, 100 pM [^125 I]-HEAT, membranes prepared from cell lines transfected with the respective alpha 1 subtype expression plasmid and increasing amounts of unlabeled ligand. Reactions were incubated at room temperature for one hour with shaking. Reactions were filtered onto Whatman GF/C glass fiber filters with a Inotec 96 well cell harvester. Filters were washed three times with ice cold buffer and bound radioactivity was determined (Ki).

[2] = biological target: T1, human alpha 1a adrenergic receptor (Homo sapiens, UniProt P35348); assay: Screening assay: alpha 1a adrenergic receptor binding ([125I]-HEAT competition, membranes of stably transfected cell line)
T1 sequence (P35348 1-466): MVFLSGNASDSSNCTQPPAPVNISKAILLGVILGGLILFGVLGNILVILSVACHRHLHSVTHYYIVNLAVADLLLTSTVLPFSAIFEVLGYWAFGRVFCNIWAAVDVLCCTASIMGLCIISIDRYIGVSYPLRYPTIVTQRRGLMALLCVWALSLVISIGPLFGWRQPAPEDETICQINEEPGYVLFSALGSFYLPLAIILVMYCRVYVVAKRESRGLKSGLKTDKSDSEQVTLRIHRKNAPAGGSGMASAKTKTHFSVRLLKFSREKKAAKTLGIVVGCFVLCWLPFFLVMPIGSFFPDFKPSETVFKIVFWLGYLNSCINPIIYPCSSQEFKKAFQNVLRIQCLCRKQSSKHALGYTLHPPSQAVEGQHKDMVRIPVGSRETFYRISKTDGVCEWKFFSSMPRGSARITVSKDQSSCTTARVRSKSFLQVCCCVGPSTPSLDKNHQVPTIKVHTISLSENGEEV
Description: Screening Assay: Alpha 1a Adrenergic Receptor Binding
Membranes prepared from the stably transfected human alpha 1a cell line (ATCC CRL 11140) were used to identify compounds that bind to the human alpha 1a adrenergic receptor. These competition binding reactions (total volume=200 μl) contained 50 mM Tris-HCl pH. 7.4, 5 mM EDTA, 150 mM NaCl, 100 pM [^125 I]-HEAT, membranes prepared from the alpha 1a cell line and increasing amounts of unlabeled ligand. Reactions were incubated at room temperature for one hour with shaking. Reactions were filtered onto Whatman GF/C glass fiber filters with a Inotec 96 well cell harvester. Filters were washed three times with ice cold buffer and bound radioactivity was determined (Ki).

SMILES | selectivity in binding to alpha 1a receptors versus binding to alpha 1b and alpha 1d receptors [1] [fold] | Ki ([2]; room temperature, 1 h, pH 7.4) [mM] | Ki ([2]; value in mM) [mM]
Cc1cn(Cc2ccccc2)c(=O)n(CCCN[C@H]2CC[C@@](C#N)(c3ccccc3)CC2)c1=O [Example 6, trans-4-[3-(3-Benzyl-5-methyl-2,6-dioxo-3,6-dihydro-2H-pyrimidin-1-yl)propylamino]-1-phenylcyclohexanecarbonitrile] | ≤ 10 | 0.0005 | 
Cc1cn(Cc2ccccc2)c(=O)n(CCCN[C@H]2CC[C@@](C#N)(c3cc(F)cc(F)c3)CC2)c1=O [Example 9, cis-4-[3-(3-Benzyl-5-methyl-2,6-dioxo-3,6-dihydro-2H-pyrimidin-1-yl)propylamino]-1-(3,5-difluorophenyl)cyclohexanecarbonitrile] | ≤ 10 |  | 0.000115
Cc1cn(CCCN[C@H]2CC[C@](C#N)(c3ccccc3C#N)CC2)c(=O)n(Cc2ccccc2)c1=O [Example 26, trans-2-{4-[3-(3-Benzyl-5-methyl-2,4-dioxo-3,4-dihydro-2H-pyrimidin-1-yl)propylamino]-1-cyanocyclohexyl}benzonitrile] | ≤ 10 | 0.00079 | 
Cc1c[nH]c(=O)n(CCCN[C@H]2CC[C@@](C#N)(c3ccccc3)CC2)c1=O [Example 21, trans-4-[3-(5-Methyl-2,6-dioxo-3,6-dihydro-2H-pyrimidin-1-yl)propylamino]-1-phenylcyclohexanecarbonitrile] | ≤ 10 | 0.000755 | 
Cc1cn(Cc2ccccc2)c(=O)n(CCCN[C@H]2CC[C@](C#N)(c3ccc(F)cc3F)CC2)c1=O [Example 4, cis-4-[3-(3-Benzyl-5-methyl-2,6-dioxo-3,6-dihydro-2H-pyrimidin-1-yl)propylamino]-1-(2,4-difluorophenyl)cyclohexanecarbonitrile] | ≤ 10 |  | 
Cc1c[nH]c(=O)n(CCCN[C@H]2CC[C@](C#N)(c3ccccc3)CC2)c1=O [Example 20, cis4-[3-(5-Methyl-2,6-dioxo-3,6-dihydro-2H-pyrimidin-1-yl)propylamino]-1-phenylcyclohexanecarbonitrile] | ≤ 10 |  | 
Cc1ccccc1C1(C#N)CCN(CCCn2c(=O)c(C)cn(Cc3ccccc3)c2=O)CC1 [Example 2, 1-[3-(3-Benzyl-5-methyl-2,6-dioxo-3,6-dihydro-2H-pyrimidin-1-yl)propyl]-4-ortho-tolylpiperidine-4-carbonitrile] | ≤ 10 |  | 
Cc1cn(Cc2ccccc2)c(=O)n(CCCN2CCC(c3ccc(F)cc3)CC2)c1=O [Example 1, 1-Benzyl-3-{3-[4-(4-fluorophenyl)piperidin-1-yl]propyl}-5-methyl-1H-pyrimidine-2,4-dione] | ≤ 10 |  | 
COc1ccccc1[C@H]1CC[C@H](NCCCn2c(=O)c(C)cn(Cc3ccccc3)c2=O)CC1 [Example 17, trans-1-Benzyl-3-{3-[4-(2-methoxyphenyl)cyclohexylamino]propyl}-5-methyl-1H-pyrimidine-2,4-dione] | ≤ 10 |  | 
